Measurements taken from patent US8129371B2, “Thienopyrimidine and pyrazolopyrimidine compounds and their use as mTOR kinase and PI3 kinase inhibitors” (Wyeth LLC, priority 2007, dated 2012).
Where two headings read alike, the source gives them in different places.

What was measured:
Human mTOR (FLAG-TOR) = target: T1, Human mTOR (FLAG-TOR) (Homo sapiens, UniProt P42345); test: Human mTOR kinase assay with purified enzyme, DELFIA format; type: biochemical
T1 construct: FLAG
Summary of the method: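 DELFIA readout: Eu-anti-P(T389)-S6K antibody (40 ng/mL, 1 h) on captured His6-S6K from the stopped reaction. Kinase step used purified FLAG-tagged human mTOR with test compound in HEPES (pH 7.4)/MnCl2/DTT buffer, 2 h at room temperature (linear 1–6 h), terminated by EDTA/EGTA.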

PI3K [1] = target: T2, PI3K (Homo sapiens, UniProt P42336); test: Fluorescence polarization assay for PI3K; type: biochemical; details: read-out: PI3 Kinase α IC50
T2 construct: PI3 Kinase α IC50; other: PI3 Kinase α; other: PI3 Kinase α isoform, fluorescence polarization
Summary of the method: (§1)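 Fluorescence-polarization competition readout: after 30–60 min of PIP2/ATP turnover in 1% DMSO, a stop mix with GST-GRP (70 nM) and red probe (10 nM) was added.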

PI3K [2] = target: T3, PI3K (Homo sapiens, UniProt P48736); test: Fluorescence polarization assay for PI3K; type: biochemical; details: read-out: PI3 Kinase γ IC50
T3 construct: PI3 Kinase γ IC50; other: PI3 Kinase γ; other: PI3 Kinase γ isoform, fluorescence polarization
Summary of the method: as §1

prostate line LNCap = test: In vitro cell culture growth assay (MTS), LNCap; type: cell-based; details: Homo sapiens, LNCaP, 72 h, LNCap cells, three days after drug treatment
Summary of the method: (§2)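 Growth is reported as percent of vehicle-treated control grown in the same plate, with viability determined by metabolic conversion of MTS dye and absorbance read at 490 nm. Compounds were applied one day after plating and left for three days.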

breast line MDA468 = test: In vitro cell culture growth assay (MTS), MDA468; type: cell-based; details: Homo sapiens, 72 h, MDA468 cells, three days after drug treatment
Summary of the method: as §2

[3] = purified human mTOR enzyme, DELFIA format
[4] = PI3 Kinase α isoform, fluorescence polarization
[5] = PI3 Kinase γ isoform, fluorescence polarization

T2 sequence (P42336 whole entry, canonical isoform): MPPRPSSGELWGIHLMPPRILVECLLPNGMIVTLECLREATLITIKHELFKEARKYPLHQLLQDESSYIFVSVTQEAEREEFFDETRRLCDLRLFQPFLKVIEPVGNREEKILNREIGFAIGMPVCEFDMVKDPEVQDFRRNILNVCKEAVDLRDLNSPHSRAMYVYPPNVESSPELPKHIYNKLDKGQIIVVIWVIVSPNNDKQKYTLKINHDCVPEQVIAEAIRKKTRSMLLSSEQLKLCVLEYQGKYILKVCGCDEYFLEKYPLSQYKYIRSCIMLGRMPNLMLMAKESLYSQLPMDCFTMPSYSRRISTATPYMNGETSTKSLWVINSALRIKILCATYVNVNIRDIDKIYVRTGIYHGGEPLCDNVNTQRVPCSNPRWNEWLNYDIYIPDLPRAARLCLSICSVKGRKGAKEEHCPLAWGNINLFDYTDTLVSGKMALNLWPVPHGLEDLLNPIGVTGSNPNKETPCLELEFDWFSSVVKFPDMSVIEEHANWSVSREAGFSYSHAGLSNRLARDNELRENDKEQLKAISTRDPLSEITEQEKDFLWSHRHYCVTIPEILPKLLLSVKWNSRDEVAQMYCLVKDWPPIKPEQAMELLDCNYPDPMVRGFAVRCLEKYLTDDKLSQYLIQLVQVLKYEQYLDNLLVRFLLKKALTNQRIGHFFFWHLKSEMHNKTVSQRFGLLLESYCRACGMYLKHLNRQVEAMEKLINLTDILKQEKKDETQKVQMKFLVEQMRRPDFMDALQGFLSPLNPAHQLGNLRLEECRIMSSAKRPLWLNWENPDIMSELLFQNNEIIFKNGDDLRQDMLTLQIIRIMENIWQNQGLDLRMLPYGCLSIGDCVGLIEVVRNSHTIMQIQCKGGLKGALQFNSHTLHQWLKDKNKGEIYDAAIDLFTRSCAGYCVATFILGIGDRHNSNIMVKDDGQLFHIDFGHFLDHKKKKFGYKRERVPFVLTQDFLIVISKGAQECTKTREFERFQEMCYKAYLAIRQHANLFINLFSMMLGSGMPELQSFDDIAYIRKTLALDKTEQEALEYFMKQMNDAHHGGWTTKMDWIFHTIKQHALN
T3 sequence (P48736 whole entry, canonical isoform): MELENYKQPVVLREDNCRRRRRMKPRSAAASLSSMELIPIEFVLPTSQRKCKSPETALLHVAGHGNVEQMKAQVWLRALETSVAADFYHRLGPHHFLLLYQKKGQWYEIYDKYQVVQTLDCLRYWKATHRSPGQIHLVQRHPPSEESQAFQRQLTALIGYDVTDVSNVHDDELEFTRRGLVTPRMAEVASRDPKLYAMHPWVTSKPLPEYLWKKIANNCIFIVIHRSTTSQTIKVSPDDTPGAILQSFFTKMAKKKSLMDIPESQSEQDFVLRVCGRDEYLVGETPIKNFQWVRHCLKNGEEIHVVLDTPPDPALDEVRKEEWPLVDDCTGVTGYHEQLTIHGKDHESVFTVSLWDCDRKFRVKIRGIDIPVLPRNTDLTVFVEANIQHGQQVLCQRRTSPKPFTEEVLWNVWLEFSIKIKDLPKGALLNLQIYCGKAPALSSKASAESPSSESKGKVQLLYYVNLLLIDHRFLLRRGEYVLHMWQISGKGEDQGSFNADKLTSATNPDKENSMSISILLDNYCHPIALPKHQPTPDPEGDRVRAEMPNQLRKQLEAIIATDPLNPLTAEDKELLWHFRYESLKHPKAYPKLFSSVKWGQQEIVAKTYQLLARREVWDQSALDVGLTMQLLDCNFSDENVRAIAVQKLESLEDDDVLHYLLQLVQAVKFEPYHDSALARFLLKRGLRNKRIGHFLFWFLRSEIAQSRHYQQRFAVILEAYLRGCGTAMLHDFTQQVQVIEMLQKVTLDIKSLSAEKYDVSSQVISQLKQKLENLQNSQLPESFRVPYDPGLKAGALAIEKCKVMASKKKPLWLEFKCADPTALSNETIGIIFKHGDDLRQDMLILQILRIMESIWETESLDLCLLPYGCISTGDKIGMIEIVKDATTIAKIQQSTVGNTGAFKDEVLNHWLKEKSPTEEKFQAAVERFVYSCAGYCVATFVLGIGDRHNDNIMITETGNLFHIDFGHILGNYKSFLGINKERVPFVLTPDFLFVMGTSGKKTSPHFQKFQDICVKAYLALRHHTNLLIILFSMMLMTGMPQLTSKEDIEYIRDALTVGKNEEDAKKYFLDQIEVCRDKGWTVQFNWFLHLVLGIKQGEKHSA

Row | Structure (SMILES) | IC50 (Human mTOR (FLAG-TOR); [3]) [nM] | IC50 (PI3K [1]; [4]) [nM] | IC50 (PI3K [2]; [5]) [nM] | IC50 (prostate line LNCap) [nM] | IC50 (breast line MDA468) [nM] | IC50 (Human mTOR (FLAG-TOR)) [nM] | IC50 (PI3K [1]; PI3 Kinase α) [nM] | IC50 (PI3K [2]; PI3 Kinase γ) [nM]
1 | COC1CCC(n2ncc3c(N4CC5CCC(C4)O5)nc(-c4ccc(NC(=O)Nc5cccnc5)cc4)nc32)CC1 (stereo not shown) [Example 384, 1-{4-[1-(4-methoxycyclohexyl)-4-(8-oxa-3-azabicyclo[3.2.1]oct-3-yl)-1H-pyrazolo[3,4-d]pyrimidin-6-yl]phenyl}-3-pyridin-3-ylurea] | 0.175 | 297 | 2170 | 2 | 22 |  |  | 
2 | COC(=O)N1CCC(n2ncc3c(N4C5CCC4COC5)nc(-c4ccc(NC(=O)Nc5ccccc5)cc4)nc32)CC1 [Example 360, methyl 4-[4-(3-oxa-8-azabicyclo[3.2.1]oct-8-yl)-6-{4-[(phenylcarbamoyl)amino]phenyl}-1H-pyrazolo[3,4-d]pyrimidin-1-yl]piperidine-1-carboxylate] | 0.425 | 1460 | 2150 | 10 | 40 |  |  | 
3 | CCn1ncc2c(N3CC4CCC(C3)O4)nc(-c3ccc(NC(=O)Nc4ccc(N5CCOCC5)cc4)cc3)nc21 [Example 181, 1-{4-[1-ethyl-4-(8-oxa-3-azabicyclo[3.2.1]oct-3-yl)-1H-pyrazolo[3,4-d]pyrimidin-6-yl]phenyl}-3-(4-morpholin-4-ylphenyl)urea] |  |  |  | < 1 | < 1 | 0.18 | 175 | 3670
4 | O=C(Nc1ccc(-c2nc(N3CC4CCC(C3)O4)c3cnn(C4CCC5(CCCO5)CC4)c3n2)cc1)OCCO (single isomer, unassigned) [Example 315, 2-hydroxyethyl (4-{4-(8-oxa-3-azabicyclo[3.2.1]oct-3-yl)-1-[(5r,8r)-1-oxaspiro[4.5]dec-8-yl]-1H-pyrazolo[3,4-d]pyrimidin-6-yl}phenyl)carbamate] | 0.8 | 5600 | 2060 | 10 | 220 |  |  | 
5 | Oc1cccc(-c2nc(N3C4CCC3COC4)c3cnn(-c4ccccc4)c3n2)c1 [Example 378, 3-[4-(3-oxa-8-azabicyclo[3.2.1]oct-8-yl)-1-phenyl-1H-pyrazolo[3,4-d]pyrimidin-6-yl]phenol] | 11.5 | 407 | 1960 | 820 | 5800 |  |  | 
6 | COC(=O)N1CCC(n2ncc3c(N4CC5CCC(C4)O5)nc(-c4ccc(NC(=O)OCCN5CCOCC5)cc4)nc32)CC1 [Example 117, methyl 4-[6-(4-{[(2-morpholin-4-ylethoxy)carbonyl]amino}phenyl)-4-(8-oxa-3-azabicyclo[3.2.1]oct-3-yl)-1H-pyrazolo[3,4-d]pyrimidin-1-yl]piperidine-1-carboxylate] |  |  |  | 4400 | 22000 | > 800 | > 10000 | > 10000
7 | COC1CCC(n2ncc3c(N4CC5CCC(C4)O5)nc(-c4ccc(NC(=O)Nc5ccc(C(=O)NN6CCCC6)cc5)cc4)nc32)CC1 (stereo not shown) [Example 307, 4-[({4-[1-(4-methoxycyclohexyl)-4-(8-oxa-3-azabicyclo[3.2.1]oct-3-yl)-1H-pyrazolo[3,4-d]pyrimidin-6-yl]phenyl}carbamoyl)amino]-N-pyrrolidin-1-ylbenzamide] | 0.145 | 404 | 4960 | < 1 | 2 |  |  | 
8 | Cn1ncc2c(N3CC4CCC(C3)O4)nc(-c3ccc(NC(=O)NCCO)cc3)nc21 [Example 54, 1-(2-hydroxyethyl)-3-{4-[1-methyl-4-(8-oxa-3-azabicyclo[3.2.1]oct-3-yl)-1H-pyrazolo[3,4-d]pyrimidin-6-yl]phenyl}urea] |  |  |  | 410 | 1200 | 1.1 | 437 | 5790
9 | O=C(Nc1ccc(CO)cc1)Nc1ccc(-c2nc(N3C4CCC3COC4)c3cnn(CC(F)(F)F)c3n2)cc1 [Example 269, 1-[4-(hydroxymethyl)phenyl]-3-{4-[4-(3-oxa-8-azabicyclo[3.2.1]oct-8-yl)-1-(2,2,2-trifluoroethyl)-1H-pyrazolo[3,4-d]pyrimidin-6-yl]phenyl}urea] |  |  |  | < 1 | < 1 | 0.079 | 117 | 2130
10 | CN1CCN(Cc2cc3nc(-c4ccc(NC(=O)Nc5ccc(C(N)=O)cc5)cc4)nc(N4CC5CCC(C4)O5)c3s2)CC1 [Example 428, 4-{[(4-{6-[(4-methylpiperazin-1-yl)methyl]-4-(8-oxa-3-azabicyclo[3.2.1]oct-3-yl)thieno[3,2-d]pyrimidin-2-yl}phenyl)carbamoyl]amino}benzamide] | 1.5 | 34 | 815 | 240 | 110 |  |  | 
11 | CNC(=O)Nc1ccc(-c2nc(N3CC4CCC(C3)O4)c3cnn(CCO)c3n2)cc1 [Example 193, 1-{4-[1-(2-hydroxyethyl)-4-(8-oxa-3-azabicyclo[3.2.1]oct-3-yl)-1H-pyrazolo[3,4-d]pyrimidin-6-yl]phenyl}-3-methylurea] |  |  |  | 650 | 980 | 2.85 | 375 | > 10000
12 | O=C(Nc1ccccc1)Nc1ccc(-c2nc(N3CC4CCC(C3)O4)c3cnn(C4CCN(Cc5cccnc5)CC4)c3n2)cc1 [Example 17, 1-(4-{4-(8-oxa-3-azabicyclo[3.2.1]oct-3-yl)-1-[1-(pyridin-3-ylmethyl)piperidin-4-yl]-1H-pyrazolo[3,4-d]pyrimidin-6-yl}phenyl)-3-phenylurea] |  |  |  | 0.8 | 10 | 0.61 | 222 | 1860
13 | O=C(Nc1ccc(-c2nc(N3CC4CCC(C3)O4)c3cnn(C4CCC(O)CC4)c3n2)cc1)OCCO (stereo not shown) [Example 212, 2-hydroxyethyl {4-[1-(4-hydroxycyclohexyl)-4-(8-oxa-3-azabicyclo[3.2.1]oct-3-yl)-1H-pyrazolo[3,4-d]pyrimidin-6-yl]phenyl}carbamate] |  |  |  | 42 | 190 | 0.565 | 3960 | > 10000
14 | COC(=O)N1CCC(n2ncc3c(N4CC5CCC(C4)O5)nc(-c4ccc(NC(=O)Nc5cccc(CO)c5)cc4)nc32)CC1 [Example 171, methyl 4-{6-[4-({[3-(hydroxymethyl)phenyl]carbamoyl}amino)phenyl]-4-(8-oxa-3-azabicyclo[3.2.1]oct-3-yl)-1H-pyrazolo[3,4-d]pyrimidin-1-yl}piperidine-1-carboxylate] |  |  |  | 5 | 8 | 0.215 | 54 | 1830
15 | CN1CCN(C2CCC(n3ncc4c(N5CC6CCC(C5)O6)nc(-c5ccc(NC(=O)NCCF)cc5)nc43)CC2)CC1 (stereo not shown) [Example 371, 1-(2-fluoroethyl)-3-(4-{1-[4-(4-methylpiperazin-1-yl)cyclohexyl]-4-(8-oxa-3-azabicyclo[3.2.1]oct-3-yl)-1H-pyrazolo[3,4-d]pyrimidin-6-yl}phenyl)urea] | 1.3 | 2490 | 8930 | 190 | 460 |  |  | 
16 | O=C(Nc1ccc(-c2nc(N3C[C@H]4C[C@@H]3CO4)c3cnn(CC(F)(F)F)c3n2)cc1)Nc1cccnc1 [Example 344, 1-(4-{4-[(1R,4R)-2-oxa-5-azabicyclo[2.2.1]hept-5-yl]-1-(2,2,2-trifluoroethyl)-1H-pyrazolo[3,4-d]pyrimidin-6-yl}phenyl)-3-pyridin-3-ylurea] | 17 | 1940 | > 10000 | 660 | 1000 |  |  | 
17 | Cn1ncc2c(N3CC4CCC(C3)O4)nc(-c3ccc(NC(=O)Nc4ccccc4)cc3)nc21 [Example 55, 1-{4-[1-methyl-4-(8-oxa-3-azabicyclo[3.2.1]oct-3-yl)-1H-pyrazolo[3,4-d]pyrimidin-6-yl]phenyl}-3-phenylurea] |  |  |  | 0.8 | 32 | 0.66 | 74 | 648
18 | COCC(COC)n1ncc2c(N3CC4CCC(C3)O4)nc(-c3ccc(NC(=O)Nc4ccc(C(=O)NN(C)C)cc4)cc3)nc21 [Example 336, 1-{4-[(2,2-dimethylhydrazino)carbonyl]phenyl}-3-(4-{1-[2-methoxy-1-(methoxymethyl)ethyl]-4-(8-oxa-3-azabicyclo[3.2.1]oct-3-yl)-1H-pyrazolo[3,4-d]pyrimidin-6-yl}phenyl)urea] | 2.75 | 666 | > 10000 | < 1 | 4 |  |  | 
19 | Nc1ccc(-c2nc(N3CC4CCC(C3)O4)c3sccc3n2)cn1 [Example 420, 5-[4-(8-oxa-3-azabicyclo[3.2.1]oct-3-yl)thieno[3,2-d]pyrimidin-2-yl]pyridin-2-amine] | 32 | 1770 | > 10000 | 1250 | 4800 |  |  | 
20 | N#CCCn1ncc2c(N3CC4CCC(C3)O4)nc(-c3ccc(NC(=O)Nc4ccc(CCO)cc4)cc3)nc21 [Example 219, 1-{4-[1-(2-cyanoethyl)-4-(8-oxa-3-azabicyclo[3.2.1]oct-3-yl)-1H-pyrazolo[3,4-d]pyrimidin-6-yl]phenyl}-3-[4-(2-hydroxyethyl)phenyl]urea] |  |  |  | < 1 | < 1 | 0.082 | 44 | 1380
